Results: article PMC12374030, “Hydroxyalkyne–Bithiophene Derivatives: Synthesis and Antileishmanial Activity” (Chemical Biology & Drug Design, 2025)
Converted amounts (≈) assume the structure as drawn. Blank lines part the entries; values can stand above or below the molecule they belong to.

Columns and labels:
[1] = test system: L. amazonensis promastigotes; test: Cell size (FSC-H, flow cytometry); type: cell-based, Leishmania amazonensis; conditions: 2 × IC50, 24 h
Experimental: Promastigotes at 1 × 10^6 parasites mL^−1 treated with BT‐1 for 24 h were washed twice and resuspended in phosphate‐buffered saline (PBS), then analyzed using a FACSCalibur flow cytometer (BD Biosciences, Franklin Lakes, NJ, USA) equipped with CellQuest software. As a positive control, […] actinomycin D was used. A total of 10,000 events were acquired in the region that corresponded to the parasites. Histograms were generated for each sample, where the forward light scatter (FSC‐H) represents the cell volume (Lazarin‐Bidóia et al. [2013]).

[2] = test system: L. amazonensis promastigotes; test: Cell cycle (PI-RNAse A, flow cytometry); type: cell-based, Leishmania amazonensis; conditions: IC50, 24 h
Experimental: Promastigotes at 1 × 10^6 parasites mL^−1 treated with BT‐1 for 24 h were fixed in 70% cold methanol in PBS at 4°C for 2 h. Afterward, the parasites were washed in PBS, 10 μg mL^−1 PI‐RNAse A was added, and the samples were incubated at 37°C for 45 min. The data acquisition and analysis were performed using a FACSCalibur flow cytometer (BD Biosciences, Franklin Lakes, NJ, USA) equipped with CellQuest software. A total of 10,000 events were acquired in the region that corresponded to the parasites. As a positive control, 40 μM miltefosine was used. The percentages of cells in each stage of the cell cycle were determined based on the intensity of the PI fluorescence, which is directly proportional to the DNA content.

[3] = test system: L. amazonensis promastigote forms; test: Antiproliferative assay (XTT); type: cell-based, Leishmania amazonensis
Experimental: L. amazonensis MHOM/BR/75/Josefa strain was originally isolated from a human case of CL by Dr. […]. Cuba at the University of Brasilia, Brazil (Saraiva et al. [1983]; Cuba et al. [1985]). […] The activity against promastigotes was evaluated by XTT (0.5 mg mL^-1), as previously described (Meshulam et al. [1995]). Absorbance was read in a microplate spectrophotometer (PowerWave XS; BioTek, Winooski, VT, USA) at 450 nm.

[4] = test system: L. amazonensis promastigotes; test: Mitochondrial membrane potential (Rh123, flow cytometry); type: cell-based, Leishmania amazonensis; conditions: for Mitochondrial potential: Average (Median): 24 h, Rh123 fluorescence
Experimental: Promastigotes at 1 × 10^6 parasites mL^−1 treated with BT‐1 for 24 h were incubated with 5 μg mL^−1 Rh123, a fluorescent probe that accumulates in mitochondria, for 15 min (Menna‐Barreto, Corrêa, et al. [2009]; Menna‐Barreto, Goncalves, et al. [2009]). As a positive control, 100 μM CCCP was used. The data acquisition and analysis were performed using a FACSCalibur flow cytometer (BD Biosciences, Franklin Lakes, NJ, USA) equipped with CellQuest software. A total of 10,000 events were acquired in the region corresponding to the parasites.

[5] = test system: L. amazonensis promastigotes; test: Lipid bodies accumulation (Nile red); type: cell-based, Leishmania amazonensis
Experimental: Promastigotes at 1 × 10^6 parasites mL^−1 treated with BT‐1 for 24 h were incubated with 10 μg mL^−1 Nile red, a lipophilic stain, for 30 min at 25°C. The fluorescence was measured in a Victor X3 spectrofluorimeter (PerkinElmer, Waltham, MA, USA) at λex of 485 nm and λem of 535 nm (Stefanello et al. [2014]).

[6] = test system: L. amazonensis promastigotes; test: Lipid peroxidation assay (DPPP); type: cell-based, Leishmania amazonensis
Experimental: Promastigotes at 1 × 10^6 parasites mL^−1 treated with BT‐1 for 24 h were incubated with 50 μM DPPP for 15 min at 22°C. As a positive control, 50 μM H2O2 was used. The fluorescence was determined in a Victor X3 spectrofluorimeter (PerkinElmer, Waltham, MA, USA) at λex of 355 nm and λem of 460 nm. DPPP is essentially nonfluorescent until it is oxidized to a phosphine oxide (DPPP‐O) by peroxides (Okimoto et al. [2000]).

[7] = test system: L. amazonensis promastigotes; test: Reactive oxygen species production (H2DCFDA); type: cell-based, Leishmania amazonensis
Experimental: Promastigotes at 1 × 10^6 parasites mL^−1 treated with BT‐1 for 24 h were incubated with 10 μM H2DCFDA in the dark for 45 min. As a positive control, 50 μM H2O2 was used. The fluorescence was determined by oxidation of H2DCFDA to the fluorescent product, 2′‐7ʹ dichlorofluorescein (DCF), which was measured in a Victor X3 spectrofluorimeter (PerkinElmer, Waltham, MA, USA) at λex of 488 nm and λem of 530 nm (Shukla et al. [2012]).

[8] = test system: L. amazonensis promastigote forms; test: Morphological and ultrastructural changes (SEM, TEM); type: cell-based, Leishmania amazonensis; conditions: IC50 or 2 × IC50, 72 h
Experimental: After this, the parasites were fixed in a solution of 2.5% glutaraldehyde in 0.1 M cacodylate buffer for 24 h at 4°C. For scanning electron microscopy (SEM), the parasites were dehydrated in increasing concentrations of ethanol, critical point‐dried in CO2, sputter‐coated with gold, and observed in a Quanta 250 scanning electron microscope (FEI Company, Hillsboro, OR, USA). For transmission electron microscopy (TEM), the parasites were fixed as described for SEM. After this, the parasites were postfixed in a solution of 1% OsO4, 0.8% K4[Fe(CN)6], and 10 mM CaCl2 in 0.1 M cacodylate buffer. The samples were dehydrated in increasing concentrations of acetone and embedded in Poly/Bed 812 resin. Ultrathin sections were then obtained, contrasted with uranyl acetate and lead citrate, and observed in a JEM 1400 transmission electron microscope (JEOL Ltd., Tokyo, Japan).

[9] = test system: J774A.1 macrophages; test: Cytotoxicity assay in macrophages (MTT); type: cell-based; conditions: at 23.2 μM (IC50 against promastigotes)
[10] = Cytotoxicity assay in macrophages (MTT); type: cell-based; conditions: mouse, J774A.1 macrophages, pH 7.2
Experimental: L. amazonensis MHOM/BR/75/Josefa strain was originally isolated from a human case of CL by Dr. Cesar A. Cuba at the University of Brasilia, Brazil (Saraiva et al. [1983]; Cuba et al. [1985]). Promastigote forms of this strain were maintained axenically in Warren's medium (brain–heart infusion plus hemin and folic acid; pH 7.2) supplemented with 10% heat‐inactivated FBS and maintained at 25°C. J774A.1 macrophages (obtained from the Cell Bank of Rio de Janeiro, RJ, Brazil) were maintained in RPMI‐1640 medium (pH 7.2), supplemented with sodium bicarbonate, L‐glutamine, 10% FBS, and streptomycin and penicillin at 37°C in a 5% CO2 atmosphere.
Cytotoxicity was evaluated in the J774A.1 macrophages. Macrophages (5 × 10^5 cells mL^−1) were cultured in 96‐well microplates containing RPMI‐1640 medium supplemented with 10% FBS. The plates were incubated at 37°C in a 5% CO2 atmosphere for confluent growth of the cells. After 24 h, the compounds were added to each well at increasing concentrations (31.25–1000 μM) and incubated for 48 h at 37°C in a 5% CO2 atmosphere. The cytotoxicity was evaluated by MTT (2 mg mL^−1), as previously described (Mosmann [1983]). Absorbance was read in a microplate spectrophotometer (PowerWave XS; BioTek, […], VT, USA) at 570 nm.

[11] = test system: L. amazonensis promastigotes; test: Cell membrane integrity (PI, flow cytometry); type: cell-based, Leishmania amazonensis
Experimental: Promastigotes at 1 × 10^6 parasites mL^−1 treated with BT‐1 for 24 h were incubated with 0.2 μg mL^−1 PI for 10 min. As a positive control, 40 μM digitonin was used. The data acquisition and analysis were performed using a FACSCalibur flow cytometer (BD Biosciences, Franklin Lakes, NJ, USA) equipped with CellQuest software. A total of 10,000 events were acquired in the region that corresponded to the parasites. Alterations in PI fluorescence were quantified as the percentage increase in fluorescence compared with the untreated parasites (Lazarin‐Bidóia et al. [2013]).

[12] = test system: Leishmania amazonensis promastigote; parameters: method as in Takahashi et al. [2011]; conditions: previous work; ref Takahashi et al. [2011]; cited from earlier work
[13] = test system: Leishmania amazonensis amastigote; parameters: method as in Takahashi et al. [2011]; conditions: previous work; ref Takahashi et al. [2011]; cited from earlier work

IC50 ([3]; Leishmania amazonensis, 72 h, 25°C, XTT, read-out: L. amazonensis (promastigotes) IC50): 23.2 ± 1.1 µM
Structure (SMILES): CCC(O)C#Cc1ccc(-c2ccc(C=O)s2)s1 (stereo not shown) [Compound 1]
decrease in cell size compared with the untreated control [1]: 1.45 fold
increase of cells in G0/G1 phase [2]: 1.3 fold
increase of cells in sub-G0/G1 phase [2]: 2.22 fold
Selectivity index (SI) ([3]; ratio between the CC50 (J774A.1 macrophages) and IC50 (promastigotes)): 9.33
Mitochondrial potential: Average (Median) ([4]; 23.2 μM (IC50)): 1841.42
Mitochondrial potential: Average (Median) ([4]; 46.4 μM (2 × IC50)): 796.77
reduction of mitochondrial potential compared with the untreated control ([4]; 2 × IC50, 24 h): 2.75 fold
increase in lipid body accumulation vs untreated control ([5]; 2 × IC50, 24 h): 1.5 fold
increase in lipid body accumulation vs untreated control ([5]; IC50, 24 h): 1.4 fold
increase in lipoperoxidation vs untreated control ([6]; 2 × IC50, 24 h): 8.0 fold
increase in lipoperoxidation vs untreated control ([6]; IC50, 24 h): 3.0 fold
increase in the production of total ROS vs untreated control ([7]; 2 × IC50, 24 h): 9.0 fold
increase in the production of total ROS vs untreated control ([7]; IC50, 24 h): 3.0 fold
morphological alterations by SEM [8]: rounded shape and a reduction in cell body size, cell surface roughness, a shorter flagellum, and extravasation of cytoplasmic content
ultrastructural alterations by TEM [8]: presence of lipid bodies, loss of cell content, disorganization of the nucleus, a large amount of exocytic activity, and mitochondrial swelling
toxicity to J774A.1 macrophages [9]: no toxicity
CC50 at 48 h [10]: 216 ± 5.1 µM
increase of PI-stained cells vs untreated control ([11]; 2 × IC50, 24 h): 11.13 fold
increase of PI-stained cells vs untreated control ([11]; IC50, 24 h): 3.48 fold

Structure (SMILES): CC(=O)OCCC#Cc1ccc(-c2ccc(C)s2)s1 [I, 5′‐methyl‐(5‐[4‐acetoxy‐1‐butynyl])‐2,2′‐bithiophene]
IC50 promastigote [12]: 21.3 ± 4.4 µg/mL (≈ 73.3 µM)
IC50 amastigote [13]: 28.7 ± 2.6 µg/mL (≈ 98.8 µM)
